In the oligonucleotide strings, read from the 5' end, every base follows the letter of its sugar. An asterisk marks phosphorothioate; unmarked linkages are phosphodiester. Other units and linkages are bracketed, terminal groups are in braces. A string of capitals states the bases alone. d = 2'-deoxy (DNA)
Assays:
[1] = tested on: PbrRALF11; test: Expression of PbrRALF11 after PbrRALF2-ODN treatment; assay type: cell-based, pear
Protocol: (§1) The MIQE guidelines were followed for quantitative RT-PCR (qRT–PCR) experiments. The Plant Total RNA Isolation Kit (FOREGENE, Chengdu, China) was used to extract total RNA, and DNase I was used to eliminate genomic DNA contaminants. A RevertAid First Strand cDNA Synthesis Kit was used to reverse transcription purified total RNA (3 μg) (Thermo Scientific, USA). Then, using SYBR Green Master Mix on a LightCycler® 480 II (Roche, Switzerland), quantitative PCR (qPCR) was performed on 20-μl samples according to the manufacturer’s instructions. The thermal cycle was performed at 95 °C for 5 min, followed by 45 cycles of 15 s at 95 °C and 15 s at 60 °C. The pear TUBULIN gene was used as an internal control, and relative expression levels were evaluated using the 2CT2 − △△CT method, as previously described. The primers for RT-PCR and qRT–PCR of PbrRALFs, PbrCrRLK1L13, PbrMPK18, and PbrTUB in pear are presented in Supplementary Tables S5 and S6, respectively.
(§2) Twenty-mer phosphorothioate oligonucleotides against PbrRALF2, PbrCrRLK1L13, PbrMPK18, and their sense controls (s-ODN) were synthesized with three 5′- and 3′-phosphorothioate-modified bases, and a scrambled mismatch sequence was used as a control. […] More than 35 pollen tubes were measured in each treatment, and the experiments were repeated at least three times. […]

[2] = tested on: PbrRALF7; test: Expression of PbrRALF7 after PbrRALF2-ODN treatment; assay type: cell-based, pear
Protocol: as §1, §2

[3] = biological target: GST-PbrCrRLK1L13-ECD (pear (Pyrus bretschneideri)); test: SPR; Biacore T200, 25 °C; PbrCrRLK1L13 immobilised on a CM5 chip by amine coupling; running buffer 10 mM HEPES, 150 mM NaCl, 3 mM EDTA, pH 7.4; PbrRALF2 injected at 15, 30, 60 and 120 nM; steady-state 1:1 model; apparent
[4] = biological target: GST-PbrCrRLK1L13-ECD (pear (Pyrus bretschneideri)); test: ITC; MicroCal ITC200, 25 °C; 200 μM PbrRALF2 in the syringe titrated into 20 μM PbrCrRLK1L13 extracellular domain; 50 mM phosphate pH 7.4, 150 mM NaCl; one set of sites model; apparent
[5] = biological target: GST-PbrCrRLK1L13-ECD (pear (Pyrus bretschneideri))
[6] = tested on: BAK1; conditions: Arabidopsis; cited from earlier work
Excerpt: (§3) PbrCrRLK1L13 interacts with its PbrRALF2 ligand via exJM at the plasma membrane (Fig. 2B), similar to the region where LORELEI and LLG1 physically interact with FER[42], thus implying a potentially conserved role for the exJM region of CrRLK1Ls. […] Such phosphorylation by peptides has similarly been observed for multiple receptor-like kin ...

[7] = tested on: FER; conditions: Arabidopsis; cited from earlier work
Excerpt: as §3

## PbrRALF2-ODN-1: antisense ODN GTGATGGCGCTGCAGCCGCGG (antisense dG*dT*dG*dAdTdGdGdCdGdCdTdGdCdAdGdCdCdG*dC*dG*dG)
[1]
  expression level of PbrRALF11: not affected
[2]
  expression level of PbrRALF7: not affected

## recombinant PbrRALF2 (His-PbrRALF fusion protein from pCold-TF) (ligand)
[3]
  Kd: 73 nM
[4]
  Kd: 512 nM
[5]
  IC50 of inhibition of pear pollen tube growth by E. coli-expressed PbrRALF2 (0.025-1 μM): 92 nM

## PbrRALF2-ODN-2: antisense ODN GCGCACCGTAGCTGATGT (antisense dG*dC*dG*dCdAdCdCdGdTdAdGdCdTdGdA*dT*dG*dT)
[1]
  expression level of PbrRALF11: not affected
[2]
  expression level of PbrRALF7: not affected

## RALF1: Arabidopsis RALF1, ligand of FER (ATTKYISYQSLKRNSVPCSRRGASYYNCQNGAQANPYSRGCSKIARCRS; UniProt Q9SRY3 72-120, looked up)
[6]
  BAK1 phosphorylation: BAK1[41] phosphorylation
[7]
  FER phosphorylation: triggers FER

Source: publication PMC8490453, “PbrRALF2-elicited reactive oxygen species signaling is mediated by the PbrCrRLK1L13-PbrMPK18 module in pear pollen tubes” (Horticulture Research, 2021)
